Measurements: publication PMC7855930, “Nontoxic Cobalt(III) Schiff Base Complexes with Broad‐Spectrum Antifungal Activity” (Chemistry (Weinheim an Der Bergstrasse, Germany), 2020)
Like-named read-outs stand apart in the source and are kept apart here.

Assays:
C. auris CBS 10913 = assay: Antifungal MIC assay (broth microdilution in YNB); type: cell-based, Candida auris; settings: for MIC C. auris CBS 10913, lowest value ('as low as'): lower end of MIC range
Text: (§1) Yeast strains: Candida albicans (ATCC 90028, NCCLS 11), Cryptococcus neoformans (ATCC 208821, H99 type strain), Candida tropicalis (ATCC 750, type strain), Candida glabrata (ATCC 90030, NCCLS 84) and Cryptococcus deuterogattii (ATCC 32609, type strain) were obtained from the American Type Culture Collection (ATCC). Cryptococcus deuterogattii (CBS 7750), Candida auris (CBS 10913) and Candida auris (CBS 12373) were obtained from the CBS‐KNAW culture collection. The strains were maintained on glycerol/YPD (yeast extract‐peptone dextrose) broth (20:80 v/v) at −80 °C.
(§2) Antifungal minimum inhibitory concentration (MIC) assay: The cobalt complexes and antifungal control compounds were serially diluted in 50 μL of Yeast Nitrogen Broth (YNB; BD, Cat No. 233520 supplemented with 2 % glucose and 10 mM ammonium sulfate) two‐fold across the wells of non‐binding surface (NBS) 96‐well plates (Corning; Cat. No. 3641). Plates were set up in quadruplicate for each strain tested, and two biological replicates were conducted on separate assay days.
(§3) Yeast strains were cultured from glycerol onto YPD (Becton Dickinson 242720) agar at 30 °C for 72 h. For each strain, a minimum of five single colonies were taken from the agar plate and dissolved in sterile water and adjusted to form a yeast suspension of 1×10^6 to 5×10^6 CFU mL^−1 (as determined by OD530). The suspension was subsequently diluted into YNB media, and added to each well of the compound containing plates, giving a final cell density of 2.5×10^3 CFU mL^−1 and a total volume of 100 μL. Plates were covered and incubated at 35 °C for 36 h without shaking.
(§4) Growth inhibition of all strains was determined visually where the MIC was recorded as the lowest compound concentration with no visible growth. Fluconazole (Sigma F8929), ketoconazole (Sigma K1003) and micafungin (Sigma SML2288) were used as internal positive inhibitor controls for every strain tested.

C. auris CBS 12373 = assay: Antifungal MIC assay (broth microdilution in YNB); type: cell-based, Candida auris
Text: as §1, §2, §3, §4

[1] = tested on: C. deuterogattii CBS 7750; assay: Antifungal MIC assay (broth microdilution in YNB); type: cell-based, Cryptococcus deuterogattii
Text: as §1, §2, §3, §4

[2] = Cytotoxicity assay (resazurin); type: cell-based, human; settings: human, HEK293 cells (ATCC CRL-1573); 20 h incubation, 0.8–100 μM; read-out: Tox CC50 (cytotoxicity against HEK293 cells)
Method: (§5) Cytotoxicity assay: HEK293 ATCC CRL‐1573 human embryonic kidney cells suspended in DMEM media (Gibco; 11330332) supplemented with 10 % FBS (GE; SH30084.03) and 100 U mL^−1 each penicillin/streptomycin (Invitrogen; 15070063) were counted manually in a Neubauer haemocytometer and seeded into 384‐well, black wall, clear bottom tissue culture plates (Corning; Cat. No. 3712) at 5000 cells per well in a volume of 20 μL. Manually, 20 μL of each compound dilution was plated in duplicate on the cells, for a final concentration range of 0.8–100 μM. The cells were incubated together with the compounds for 20 h at 37 °C, 5 % CO2.
(§6) Cytotoxicity (or cell viability) was measured by fluorescence, ex: 560/10 nm, em: 590/10 nm (F560/590), after addition of 5 μL of 25 μg mL^−1 resazurin ([…]; Sigma R7017) and after further incubation for 3 h at 37 °C in 5 % CO2, using media only as negative control and cells without inhibitors as positive control. CC50 (concentration at 50 % cytotoxicity) were calculated by curve fitting the inhibition values vs. log(concentration) of four replicates using a sigmoidal dose‐response function, with variable fitting values for bottom, top and slope using Prism 8. Tamoxifen (Sigma T5648) was used as internal control on each plate.

[3] = tested on: Klebsiella pneumoniae ATCC 700603 (K6; ESBL SHV-18); type: cell-based; settings: 18 h
Method: CO-ADD High Throughput Screening
Bacterial broth microdilution minimum inhibitory concentration (MIC) assay Bacterial strains were cultured in Cation-adjusted Mueller Hinton broth (CAMHB; Bacto Laboratories 212322) at 37 °C overnight. A sample of each culture was then diluted 40-fold in fresh CAMHB and incubated at 37 °C for 1.5-3 h. The resultant mid-log phase cultures were diluted with CAMHB (CFU/mL measured by OD600), then added to each well of the compound-containing plates (384-well non-binding surface (NBS) plates; Corning CLS3640), giving a cell density of 5 × 10^5 CFU/mL and a total volume of 50 µL. Plates were covered and incubated at 37 °C for 18 h without shaking. Inhibition of bacterial growth was determined measuring absorbance at 600 nm (OD600), using media only as negative control and bacteria without inhibitors as positive control. MIC values were determined as the lowest concentration at which the growth was inhibited at ≥ 80%. Colistin sulfate (Sigma C4461) and vancomycin HCl (Sigma 861987) were used as positive inhibitor controls on each plate for Gram-negative and Gram-positive bacteria, respectively.
Figure S1. 1H NMR (400 MHz) of [Co(ATS)(DMAP)2]NO3 (3) in DMSO-d6.
(1 picture or pasted object on this page, not shown here)

HEK293 cells = assay: Cytotoxicity assay (resazurin); type: cell-based, human; settings: 20 h incubation, 0.8–100 μM; read-out: Tox CC50 (cytotoxicity against HEK293 cells)
Method: as §5, §6

Cyclic voltammetry = type: physicochemical; settings: DMF with 0.1 M TBAP (this work)
Method: Cyclic voltammetry: Electrochemical measurements were carried out in the same manner as reported previously. ^[25b] Experiments were conducted using a Pine WaveNow potentiostat with a three‐electrode setup consisting of a glassy carbon working electrode, a platinum counter electrode, and an Ag wire quasi‐reference electrode. Complexes were dissolved in anhydrous DMF with 0.10 M [Bu4N][PF6] (TBAP) as the supporting electrolyte. Potentials were referenced using an internal standard of the ferrocene/ferricenium couple at 0.45 V vs. the saturated calomel electrode (SCE). ^[33] The sample cell was deoxygenated by bubbling nitrogen gas through the solution prior to analysis and maintained under a blanket of nitrogen during the experiment.

[4] = tested on: panel of eight Candida and Cryptococcus strains; assay: Antifungal MIC, summary over the extended panel; type: cell-based; settings: whole yeast panel, tested alone
Text: as §1
as §2, with “Plates were set up in quadruplicate for each strain tested, and two biological replicates were conducted on separate assay days.” left out
Yeast strains were cultured from glycerol onto YPD (Becton Dickinson 242720) agar at 30 °C for 72 h. For each strain, a minimum of five single colonies were taken from the agar plate and dissolved in sterile water and adjusted to form a yeast suspension of 1×10^6 to 5×10^6 CFU mL^−1 (as determined by OD530). […]
Growth inhibition of all strains was determined visually where the MIC was recorded as the lowest compound concentration with no visible growth. […]

[5] = Candidozyma auris, CBS10913, Table S1, read-out: MIC Candida auris CBS 10913
[6] = Candidozyma auris, CBS10913, range of MICs, n=8, 35 °C, 36 h, visual, read-out: MIC C. auris CBS 10913
[7] = Candidozyma auris, CBS12373, Table S1, read-out: MIC Candida auris CBS 12373
[8] = Candidozyma auris, CBS12373, range of MICs, n=8, 35 °C, 36 h, visual, read-out: MIC C. auris CBS 12373
[9] = Cryptococcus deuterogattii, CBS7750, Table S1, read-out: MIC Cryptococcus deuterogattii CBS 7750
[10] = Cryptococcus deuterogattii, CBS7750, range of MICs, n=8, 35 °C, 36 h, visual, read-out: MIC C. deuterogattii CBS 7750
[11] = range of MICs, n=8, 35 °C, 36 h, visual, read-out: MIC C. auris CBS 12373
[12] = range of MICs, n=8, 35 °C, 36 h, visual, read-out: MIC C. deuterogattii CBS 7750
[13] = range of MICs, n=8, 35 °C, 36 h, visual

CC(/C=C(\O)C(F)(F)F)=N\CC/N=C(C)/C=C(\O)C(F)(F)F [Compound L2]
MIC (C. auris CBS 10913; [5]): > 33.2 µg/mL | MIC (C. auris CBS 10913; [6]): > 100 µM | MIC (C. auris CBS 12373; [7]): > 33.2 µg/mL | MIC (C. auris CBS 12373; [8]): > 100 µM | MIC [1, 9]: > 33.2 µg/mL | MIC [1, 10]: > 100 µM | CC50 at 20 h [2]: > 100 µM | MIC Kp (Klebsiella pneumoniae ATCC 700603) [3]: > 32 µg/mL

[Co(3F‐salophen)(3F‐BnNH2)2]NO3 [Compound 6]
MIC Candida auris CBS 10913 (C. auris CBS 10913; Table S1): 0.03 to 0.54 µg/mL | MIC C. auris CBS 10913, lowest value ('as low as') (C. auris CBS 10913): 0.098 µM | MIC Candida auris CBS 12373 (C. auris CBS 12373; Table S1): 17.3 µg/mL | MIC (C. auris CBS 12373; [11]): 25 µM | MIC Cryptococcus deuterogattii CBS 7750 ([1]; Table S1): > 69.4 µg/mL | MIC [1, 12]: >100 µM | CC50 (HEK293 cells): > 100 µM | MIC Kp (Klebsiella pneumoniae ATCC 700603) [3]: > 32 µg/mL | First reduction E pc (Cyclic voltammetry): −0.59 V vs. SCE | Second reduction E 1/2 (Cyclic voltammetry): −1.06 V vs. SCE

CC1=[N+]2N=C(N)[S][Co-3]23([n+]2ccc(N(C)C)cc2)([n+]2ccc(N(C)C)cc2)[S]C(N)=N[N+]3=C1C.O=[N+]([O-])[O-] [Compound 3, [Co(ATS)(DMAP)2]NO3]
MIC Candida auris CBS 10913 (C. auris CBS 10913; Table S1): 0.23 to 0.46 µg/mL | MIC C. auris CBS 10913 (C. auris CBS 10913; [13]): 0.39 to 0.78 µM | MIC Candida auris CBS 12373 (C. auris CBS 12373; Table S1): 0.46 µg/mL | MIC (C. auris CBS 12373; [11]): 0.78 µM | MIC Cryptococcus deuterogattii CBS 7750 ([1]; Table S1): 0.93 µg/mL | MIC [1, 12]: 1.56 µM | CC50 (HEK293 cells): > 100 µM | MIC Kp (Klebsiella pneumoniae ATCC 700603) [3]: > 32 µg/mL | First reduction E pc (Cyclic voltammetry): −0.69 V vs. SCE | Second reduction E 1/2 (Cyclic voltammetry): −1.17 V vs. SCE

O=[N+]([O-])[O-].[NH3+][Co-3]123([NH3+])[O]c4c(F)cccc4C=[N+]1c1ccccc1[N+]2=Cc1cccc(F)c1[O]3 [Compound 7, [Co(3F‐salophen)(NH3)2]NO3]
MIC Candida auris CBS 10913 (C. auris CBS 10913; Table S1): 0.37 to 0.75 µg/mL | MIC C. auris CBS 10913, lowest value ('as low as') (C. auris CBS 10913): 0.78 µM | MIC C. auris CBS 10913 (C. auris CBS 10913; [13]): 0.78 to 1.56 µM | MIC Candida auris CBS 12373 (C. auris CBS 12373; Table S1): 23.9 µg/mL | MIC (C. auris CBS 12373; [11]): 50 µM | MIC Cryptococcus deuterogattii CBS 7750 ([1]; Table S1): 47.8 µg/mL | MIC [1, 12]: 100 µM | CC50 (HEK293 cells): > 100 µM | MIC Kp (Klebsiella pneumoniae ATCC 700603) [3]: > 32 µg/mL | First reduction E pc (Cyclic voltammetry): −0.75 V vs. SCE | Second reduction E 1/2 (Cyclic voltammetry): −1.08 V vs. SCE

CC(=N\NC(N)=S)/C(C)=N/NC(N)=S [Compound L1]
MIC (C. auris CBS 10913; [5]): > 23.2 µg/mL | MIC (C. auris CBS 10913; [6]): > 100 µM | MIC (C. auris CBS 12373; [7]): > 23.2 µg/mL | MIC (C. auris CBS 12373; [8]): > 100 µM | MIC [1, 9]: > 23.2 µg/mL | MIC [1, 10]: > 100 µM | CC50 at 20 h [2]: > 100 µM | MIC Kp (Klebsiella pneumoniae ATCC 700603) [3]: > 32 µg/mL

Oc1c(F)cccc1/C=N/CC/N=C/c1cccc(F)c1O [Compound L3]
MIC (C. auris CBS 10913; [5]): > 30.4 µg/mL | MIC (C. auris CBS 10913; [6]): > 100 µM | MIC (C. auris CBS 12373; [7]): > 30.4 µg/mL | MIC (C. auris CBS 12373; [8]): 100 µM | MIC [1, 9]: > 30.4 µg/mL | MIC [1, 10]: > 100 µM | CC50 at 20 h [2]: > 100 µM | MIC Kp (Klebsiella pneumoniae ATCC 700603) [3]: > 32 µg/mL

O=[N+]([O-])[O-].O=[N+]([O-])[O-].[Co+2] [Co, Co(NO3)2, reference compound]
MIC Candida auris CBS 10913 (C. auris CBS 10913; Table S1): > 29.1 µg/mL | MIC (C. auris CBS 10913; range of MICs, n=8, 35 °C, 36 h, visual, read-out: MIC C. auris CBS 10913): >100 µM | MIC Candida auris CBS 12373 (C. auris CBS 12373; Table S1): 29.1 µg/mL | MIC (C. auris CBS 12373; [11]): 100 µM | MIC Cryptococcus deuterogattii CBS 7750 ([1]; Table S1): > 29.1 µg/mL | MIC [1, 12]: >100 µM | CC50 (HEK293 cells): > 100 µM | MIC Kp (Klebsiella pneumoniae ATCC 700603) ([3]; CAMHB, 37 °C, ≥ 80% inhibition): > 32 µg/mL | MIC, no detectable antifungal effect up to [4]: > 100 µM
